Measured values: patent publication US20240216410A1, “METHODS AND COMPOSITIONS FOR TREATING CANCER THERAPY-INDUCED NEUTROPENIC FEVER AND/OR GVHD” (BOARD OF REGENTS, THE UNIVERSITY OF TEXAS SYSTEM, priority 2021, published 2024)

Legend:
[1] = system: Bacteroides thetaiotaomicron (ATCC 29148); experiment: MIC of meropenem by MIC test strips; assay type: cell-based; conditions: ATCC29148, human-derived BT
Description: (§1) The minimum inhibitory concentration (MIC) of meropenem against murine BT was quantified using MIC test strips (Table 4).
(§2) Culturing of bacteria. Mouse-derived BT (MDA-JAX BT001), Enterococcus faecalis (MDA-JAX EF001) and Clostridium disporicum (MDA-JAX CD001), Clostridium saudiense (MDA-JAX CS001), and Lachnospiraceae unclassified (MDA-JAX LS001) were isolated and cultured from mouse stool samples suspended in 1 ml of chilled 20% anaerobic glycerol in a Whitley anaerobic chamber (10% H2, 5% CO2 and 85% N2). Human-derived BT (ATCC 29148) was purchased from ATCC. Bacterial number was quantified using a Nexcelom Cellometer cell counter with SYTO™ BC dye and propidium iodide. For measuring MICs against meropenem, bacteria were cultured on BYE plates including 5% sterilized rumen fluid (Fisher Scientific) with MIC test strips (LIOFILCHEM™ MTS™ Meropenem [MRP] 0.016-256 μg/mL, THERMO FISHER […]™)). Bacterial growth experiments were in liquid media were performed in a novel bacterial media, BYEM10, composed of a hybrid of BHI and M10 supplemented with yeast extract (Table 5).

[2] = system: Bacteroides thetaiotaomicron (MDA-JAX BT001); experiment: MIC of meropenem by MIC test strips; assay type: cell-based; conditions: mouse-derived BT
Description: as §1, §2

[3] = system: Clostridium disporicum (MDA-JAX CD001); experiment: MIC of meropenem by MIC test strips; assay type: cell-based; conditions: mouse-derived
Description: as §1, §2

[4] = system: Clostridium saudiense (MDA-JAX CS001); experiment: MIC of meropenem by MIC test strips; assay type: cell-based; conditions: mouse-derived
Description: as §1, §2

[5] = system: Enterococcus faecalis (MDA-JAX EF001); experiment: MIC of meropenem by MIC test strips; assay type: cell-based; conditions: mouse-derived
Description: as §1, §2

[6] = system: Lachnospiraceae unclassified (MDA-JAX LS001); experiment: MIC of meropenem by MIC test strips; assay type: cell-based; conditions: mouse-derived
Description: as §1, §2

[7] = Meropenem concentration in stool of mice given meropenem in drinking water; assay type: in vivo; conditions: mouse, oral; 0.625 g/L in drinking water; normal SPF mice; stool 48 hours after starting; median±SE; read-out: meropenem concentration in fecal samples
Description: To further explore a potential causal relationship between meropenem and intestinal GVHD, the effects of meropenem on GVHD in a mouse model of allo-HSCT were examined. A method of administering meropenem to mice was first developed that would better mimic the effects of meropenem on the intestinal microbiome of patients, which is typically given every 8 hours intravenously. Previously, antibiotics were administered subcutaneously to mice (25), and meropenem concentrations were quantified in the cecal lumen of mice 4, 8, 24, 48 and 96 hours after subcutaneous injection. […] Next, drinking water was evaluated as a means of continuously administering meropenem to mice, using bacterial density quantified by 16S ribosomal RNA (16S rRNA) gene quantitative PCR (qPCR) to gauge reductions of the intestinal microbiota.
Murine isolates of Enterococcus faecalis (MDA-JAX EF001), Clostridium disporicum (MDA-JAX CD001), Clostridium saudiense (MDA-JAX CS001), and Lachnospiraceae unclassified (MDA-JAX LS001) were also tested.
Antibiotics administration.

[8] = system: intestinal microbiome; experiment: allo-HSCT patients who underwent intestinal microbiome profiling (meropenem-treated vs untreated); assay type: in vivo, human
Description: Next, the effects of meropenem on the composition of the colonic microbiota of transplanted patients and mice were investigated. Fecal specimens were collected from HSCT patients transplanted from 2014 to 2019 and 44 patients were identified who were treated with allo-HSCT following conditioning with fludarabine and busulfan.
Fecal samples collected at baseline following hospital admission around day −7 as well as on day 14 following allo-HSCT were examined (FIG. 15A). […] A paired differential abundance analysis was then performed, asking which bacterial genera were the most changed from baseline in the two subgroups of patients.
Retrospective study design.
Sequencing of 16S rRNA gene amplicons. Fecal samples from patients and mice were weighed before DNA isolation. In brief, genomic DNA was isolated using the QIAAMP® DNA mini kit (51306, QIAGEN®) according to the manufacturer's protocol that was modified to include an intensive bead-beating lysis step. The V4 region of 16S rRNA gene was amplified by PCR from 100 ng of each of extracted and purified genomic DNA using 515 forward and 806 reverse primer pairs (59). The quality and quantity of the barcoded amplicons were assessed on an Agilent 4200 TapeStation system (Agilent) and QUBIT™ Fluorometer (THERMO FISHER […]™), and libraries were prepared after pooling at equimolar ratios. The final libraries were purified using […]® gel extraction kit (28706X4, QIAGEN®) and sequenced with a 2×250 base pair paired-end protocol on the […]® MISEQ™ platform.
Microbiome data analysis. Sequencing data from paired-end reads were de-multiplexed using QIIME 2 (60). Merging of paired-end reads, dereplicating, and length filtering was performed using VSEARCH 2.17.1 (61). Following de-noising and chimera calling using the unoise3 command (62), unique sequences were taxonomically classified with mothur (63) using the Silva database (64) version 138. Weighted UniFrac distances (65) were determined using QIIME 2, visualized using principal coordinate analysis, and evaluated for statistical significance using permutational multivariate analysis of variance (PERMANOVA) testing. For differential abundance analysis, abundances of sequences belonging to taxonomical groups were included for analysis using the Mann-Whitney U test and adjusted for multiple comparisons using the method of Benjamini and Hochberg. Paired samples were analyzed using the Wilcoxon signed rank test with adjustment for multiple comparisons.

[9] = human, in vivo
[10] = 44 microbiome-profiled patients, meropenem days −10 to 14

With `C[C@@H](O)[C@H]1C(=O)N2C(C(=O)O)=C(S[C@@H]3CN[C@H](C(=O)N(C)C)C3)[C@H](C)[C@H]12` [meropenem] as the compound, how does the MIC [1] read?
The MIC was 6 µg/mL.

And the MIC [2]?
Its MIC is 4 µg/mL.

What about the MIC [3] of the same compound?
The MIC was 0.094 µg/mL.

And the MIC [4]?
The MIC was 0.38 µg/mL.

What about the MIC [5] of the same compound?
Its MIC is 12 µg/mL.

What about the MIC [6] of the same compound?
Its MIC is 0.38 µg/mL.

And the concentration at 48 h [7]?
Its concentration at 48 h is 110 ± 70 ng/g.

And the “Acute GVHD Grade 0, number of patients” value [8, 10]?
Its value is 7.

What about the “Acute GVHD Grade 0, percentage of patients” value [8, 10] of the same compound?
The value was “(38%)”.

What about the “Acute GVHD Grade I, number of patients” value [8, 10] of the same compound?
Its value is 0.

And the “Acute GVHD Grade I, percentage of patients” value [8, 10]?
Its value is “(0%)”.

And the “Acute GVHD Grade II, number of patients” value [8, 10]?
The value was 7.

And the “Acute GVHD Grade II, percentage of patients” value [8, 10]?
Its value is “(38%)”.

What about the “Acute GVHD Grade III-IV, number of patients” value [8, 10] of the same compound?
Its value is 4.

And the “Acute GVHD Grade III-IV, percentage of patients” value [8, 10]?
Its value is “(22%)”.

What about the “bacterial genera most changed from baseline (paired differential abundance)” value ([8]; fecal samples pre-HSCT vs day 14) of the same compound?
The value was “significant expansion of bacteria from the genus Bacteroides”.

What about the “Acute GVHD Grade 0, number of patients” value [9] of the same compound?
The value was 13.

And the “Acute GVHD Grade 0, percentage of patients” value [9]?
Its value is “(41%)”.

And the “Acute GVHD Grade I, number of patients” value [9]?
The value was 5.

What about the “Acute GVHD Grade I, percentage of patients” value [9] of the same compound?
Its value is “(16%)”.

What about the “Acute GVHD Grade II, number of patients” value [9] of the same compound?
Its value is 10.

What about the “Acute GVHD Grade II, percentage of patients” value [9] of the same compound?
Its value is “(31%)”.

And the “incidence of acute intestinal GVHD” value [9]?
Its value is “significantly higher”.

What about the “Acute GVHD Grade III-IV, number of patients” value ([9]; iv) of the same compound?
Its value is 4.

What about the “Acute GVHD Grade III-IV, percentage of patients” value ([9]; iv) of the same compound?
The value was “(13%)”.
